pA2 and IC50 data for six compounds are collected here from ChEMBL document CHEMBL1128669, “The furoxan system as a useful tool for balancing "hybrids" with mixed alpha 1-antagonist and NO-like vasodilator activities” (J Med Chem, 1995).

Assay [1] has as its target T1, Alpha-1D adrenergic receptor (Rattus norvegicus, UniProt P23944).
T1 sequence (P23944 whole entry): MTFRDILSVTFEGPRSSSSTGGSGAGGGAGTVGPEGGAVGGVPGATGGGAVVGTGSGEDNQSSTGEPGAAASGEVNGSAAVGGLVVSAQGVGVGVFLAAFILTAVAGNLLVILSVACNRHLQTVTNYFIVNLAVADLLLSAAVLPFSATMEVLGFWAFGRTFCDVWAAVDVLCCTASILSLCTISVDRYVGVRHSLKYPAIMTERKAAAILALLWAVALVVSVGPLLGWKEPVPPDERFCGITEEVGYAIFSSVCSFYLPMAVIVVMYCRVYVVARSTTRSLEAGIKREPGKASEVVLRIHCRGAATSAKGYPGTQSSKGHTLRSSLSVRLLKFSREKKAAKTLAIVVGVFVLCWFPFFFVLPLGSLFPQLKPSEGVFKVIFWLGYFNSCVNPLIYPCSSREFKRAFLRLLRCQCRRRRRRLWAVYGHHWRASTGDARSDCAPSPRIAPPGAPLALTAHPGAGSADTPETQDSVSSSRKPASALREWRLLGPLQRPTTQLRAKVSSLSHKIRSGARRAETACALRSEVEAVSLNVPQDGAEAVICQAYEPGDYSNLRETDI
The assay can be described thus: Partial affinity towards Alpha-1 adrenergic receptor was assessed on rat aortic strips.

Assay [2] is filed under the species Rattus norvegicus. The assay can be described thus: Inhibition of vasodilating activity was assessed on the rat aortic strips in the absence of HbO2 in vitro.
The species entered for assay [3] is Rattus norvegicus. Briefly: Inhibition of vasodilating activity was assessed on the epididymal portion of rat vas deferens in the absence of HbO2 in vitro. In kind it is functional, organism-based.
For assay [4], the species on record is Rattus norvegicus. The assay can be described thus: Inhibition of vasodilating activity was assessed on the epididymal portion of rat vas deferens in the presence of HbO2 in vitro. The class given is functional.
Assay [5] is filed under the species Rattus norvegicus. Briefly: Inhibition of vasodilating activity was assessed on the rat aortic strips in the presence of HbO2 in vitro.

A word on the pA2: it is the negative logarithm of the molar antagonist concentration that doubles the agonist concentration needed for the same response. A low value points to lower antagonist potency. The IC50 is the concentration that inhibits the measured activity by half.

SMILES strings stand for the structures.

`COc1cc2nc(N3CCN(C(=O)c4no[n+]([O-])c4C(N)=O)CC3)nc(N)c2cc1OC`: the pA2 in assay [1] worked out at 8.25. Also, the concentration for half-maximal inhibition (IC50) in the assay filed under Rattus norvegicus [2] was found to be 2.5 µM.

In assay [1], `COC(=O)c1c(C(=O)N2CCN(c3nc(N)c4cc(OC)c(OC)cc4n3)CC2)no[n+]1[O-]` displayed a pA2 of 8.55. The IC50 in the assay filed under Rattus norvegicus [2] was 0.63 µM.

In assay [1], `COc1cc2nc(N3CCC(S(=O)(=O)c4c(-c5ccccc5)no[n+]4[O-])CC3)nc(N)c2cc1OC` registered a pA2 of 8.49. Besides, the IC50 amounted to 0.095 µM in the assay listed under Rattus norvegicus [3] and 0.7 µM in the assay filed under Rattus norvegicus [4].

In turn, `COc1cc2nc(N3CCC(S(=O)(=O)c4nonc4-c4ccccc4)CC3)nc(N)c2cc1OC` had a pA2 in assay [1] of 9.17.

As to `COc1cc2nc(N3CCC(S(=O)(=O)c4no[n+]([O-])c4-c4ccccc4)CC3)nc(N)c2cc1OC`, the pA2 in assay [1] is recorded as 8.96. For the same compound, the IC50 in the assay filed under Rattus norvegicus [3] worked out at 0.052 µM; in the assay filed under Rattus norvegicus [4] it was 0.61 µM.

Regarding `COc1cc2nc(N3CCN(C(=O)c4no[n+]([O-])c4C#N)CC3)nc(N)c2cc1OC`, the pA2 in assay [1] came to 8.04. Further, the IC50 in the assay filed under Rattus norvegicus [2] was 0.0097 µM; in the assay filed under Rattus norvegicus [5], 0.081 µM.
